We go through 14 compounds from patent US8440684B2, “Polycyclic pyrrolidine-2,5-dione derivatives as -formyl peptide receptor like-1 (FPRL-1) receptor modulators” (Allergan, Inc., priority 2011, dated 2013).

Each structure is given as a SMILES string.

The test has as its target T1, FPRL1 (Homo sapiens, UniProt P25090).
T1 construct: expressed in transfected cells
T1 sequence (P25090 1-351): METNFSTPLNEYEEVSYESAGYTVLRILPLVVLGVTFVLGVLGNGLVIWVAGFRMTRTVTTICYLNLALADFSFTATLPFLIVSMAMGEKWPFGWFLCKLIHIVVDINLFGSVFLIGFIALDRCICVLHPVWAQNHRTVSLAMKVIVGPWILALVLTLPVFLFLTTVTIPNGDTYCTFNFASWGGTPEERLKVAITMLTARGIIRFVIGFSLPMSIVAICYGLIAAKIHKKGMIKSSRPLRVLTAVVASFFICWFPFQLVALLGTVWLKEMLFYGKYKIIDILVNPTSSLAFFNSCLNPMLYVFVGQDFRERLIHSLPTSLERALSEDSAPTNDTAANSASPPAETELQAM
Briefly: compound-induced calcium activity on FLIPR Tetra in CHO-Ga16 cells stably expressing FPRL1. Type of test: cell-based. The following applies: for FPRL1 (rel. eff.): relative efficacy; for EC50: tested 0.61 to 10,000 nM. How it is done: CHO-Ga16 cells stably expressing FPRL1 were cultured in (F12, 10% FBS, 1% PSA, 400 μg/ml geneticin and 50 μg/ml hygromycin) and HEK-Gqi5 cells stable expressing FPR1 were cultured in (DMEM high glucose, 10% FBS, 1% PSA, 400 μg/ml geneticin and 50 μg/ml hygromycin). In general, the day before the experiment, 18,000 cells/well were plated in a 384-well clear bottom poly-d-lysine coated plate. The following day the screening compound-induced calcium activity was assayed on the FLIPR^Tetra. The drug plates were prepared in 384-well microplates using the EP3 and the MultiPROBE robotic liquid handling systems. Compounds were tested at concentrations ranging from 0.61 to 10,000 nM. Results are expressed as EC50 (nM) and efficacy values.

Usually EC50 stands for the concentration needed to bring the measured effect to its halfway point. Consider `O=C(CN1C(=O)C2C(C1=O)C1CCC2C12CC2)Nc1ccc(Br)cc1` (stereo not shown) [Compound 1, N-(4-Bromophenyl)-2-(1,3-dioxooctahydro-2H-spiro[2-aza-4,7-methanoisoindole-8,1′-cyclopropan]-2-yl)acetamide], for which the “FPRL1 (rel. eff.)” value is given as “(0.9)” and the EC50 is 118 nM.
In the same order, the values of `CSc1ccc(NC(=O)CN2C(=O)C3C(C2=O)C2CCC3C23CC3)cc1` (stereo not shown) [Compound 2, 2-(1,3-dioxooctahydro-2H-spiro[2-aza-4,7-methanoisoindole-8,1′-cyclopropan]-2-yl)-N-[4-(methylthio)phenyl]acetamide] are “(1.0)” and 336 nM.
For `O=C(CN1C(=O)C2C(C1=O)C1CCC2C12CC2)Nc1ccc(Cl)cc1` (stereo not shown) [Compound 3, N-(4-chlorophenyl)-2-(1,3-dioxooctahydro-2H-spiro[2-aza-4,7-methanoisoindole-8,1′-cyclopropan]-2-yl)acetamide], the “FPRL1 (rel. eff.)” value is “(1.0)” and the EC50 was 2050 nM.
On to `CS(=O)(=O)c1ccc(NC(=O)CN2C(=O)C3C(C2=O)C2CCC3C23CC3)cc1` (stereo not shown) [Compound 4, 2-(1,3-dioxooctahydro-2H-spiro[2-aza-4,7-methanoisoindole-8,1′-cyclopropan]-2-yl)-N-[4-(methylsulfonyl)phenyl]acetamide], for which the “FPRL1 (rel. eff.)” value was “(0.72)” and the EC50 was 3460 nM.
As for `O=C(CN1C(=O)C2C(C1=O)C1CCC2C12CC2)Nc1ccc(I)cc1` (stereo not shown) [Compound 5, 2-(1,3-dioxooctahydro-2H-spiro[2-aza-4,7-methanoisoindole-8,1′-cyclopropan]-2-yl)-N-(4-iodophenyl)acetamide], the “FPRL1 (rel. eff.)” value is on record as “(0.86)” and the EC50 was determined as 2650 nM.
For `CCc1ccc(NC(=O)CN2C(=O)C3C(C2=O)C2CCC3C23CC3)cc1` (stereo not shown) [Compound 6, 2-(1,3-dioxooctahydro-2H-spiro[2-aza-4,7-methanoisoindole-8,1′-cyclopropan]-2-yl)-N-(4-ethylphenyl)acetamide], in that order: “(0.91)” and 1150 nM.
In the same order, the values of `CC(=O)c1ccc(NC(=O)CN2C(=O)C3C(C2=O)C2CCC3C23CC3)cc1` (stereo not shown) [Compound 7, N-(4-acetylphenyl)-2-(1,3-dioxooctahydro-2H-spiro[2-aza-4,7-methanoisoindole-8,1′-cyclopropan]-2-yl)acetamide] are “(0.63)” and 7830 nM.
For `O=C(CN1C(=O)C2C(C1=O)C1CCC2C12CC2)Nc1ccc(Cl)nc1` (stereo not shown) [Compound 8, N-(6-chloropyridin-3-yl)-2-(1,3-dioxooctahydro-2H-spiro[2-aza-4,7-methanoisoindole-8,1′-cyclopropan]-2-yl)acetamide], in that order: “(0.86)” and 2510 nM.
As to `O=C(CN1C(=O)C2C(C1=O)C1CCC2C12CC2)Nc1ccc(F)cc1` (stereo not shown) [Compound 9, 2-(1,3-dioxooctahydro-2H-spiro[2-aza-4,7-methanoisoindole-8,1′-cyclopropan]-2-yl)-N-(4-fluorophenyl)acetamide], the “FPRL1 (rel. eff.)” value is listed as “(0.9)” and the EC50 was found to be 2320 nM.
For `COc1ccc(NC(=O)CN2C(=O)C3C(C2=O)C2CCC3C23CC3)cc1` (stereo not shown) [Compound 10, 2-(1,3-dioxooctahydro-2H-spiro[2-aza-4,7-methanoisoindole-8,1′-cyclopropan]-2-yl)-N-(4-methoxyphenyl)acetamide], in that order: “(1.0)” and 267 nM.
On to `CC(C(=O)Nc1ccc(Br)cc1)N1C(=O)C2C(C1=O)C1CCC2C12CC2` (stereo not shown) [Compound 11, N-(4-bromophenyl)-2-(1,3-dioxooctahydro-2H-spiro[2-aza-4,7-methanoisoindole-8,1′-cyclopropan]-2-yl)propanamide], for which the “FPRL1 (rel. eff.)” value is on record as “(0.93)” and the EC50 was over 5000 nM.
On to `O=C(CN1C(=O)C2C(C1=O)C1C=CC2C12CC2)Nc1ccc(Br)cc1` (stereo not shown) [Compound 12, N-(4-bromophenyl)-2-(1,3-dioxo-1,3,3a,4,7,7a-hexahydro-2H-spiro[2-aza-4,7-methanoisoindole-8,1′-cyclopropan]-2-yl)acetamide], for which the “FPRL1 (rel. eff.)” value was “(0.91)” and the EC50 was found to be 812 nM.
Regarding `O=C(CN1C(=O)C2CC=CCC2C1=O)Nc1ccc(Br)cc1` (stereo not shown) [N-(4-bromophenyl)-1,3,3a,4,7,7a-hexahydro-1,3-dioxo-2H-isoindole-2-acetamide, reference compound], the “FPRL1 (rel. eff.)” value is “(0.98)” and the concentration for a half-maximal effect (EC50) was determined as 395 nM.
Consider `O=C(CN1C(=O)C2C3C=CC(C3)C2C1=O)Nc1ccc(Br)cc1` (stereo not shown) [N-(4-bromophenyl)-1,3,3a,4,7,7a-hexahydro-1,3-dioxo-4,7-methano-2H-isoindole-2-acetamide, reference compound], for which the “FPRL1 (rel. eff.)” value is listed as “(0.90)” and the half-maximal effective concentration (EC50) came to 575 nM.
